Source: patent US9233111B2, “Pyrrolo pyrimidine derivatives” (NOVARTIS AG, priority 2011, dated 2016)

Experiments:
[1] = target: full-length human recombinant BTK (Homo sapiens (Human), UniProt Q06187); assay: Inhibition of Btk enzymatic activity (biochemical enzyme assay, Caliper); conditions: 30° C., 60 minutes
In short: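 Reaction of 6.4 nM BTK (stock) with 4 μM FITC-peptide and 164 μM ATP (stock solution), 60 min at 30 °C in pH 7.5 HEPES with Mg2+/Mn2+. Phospho-peptide separated and quantified by microfluidic mobility shift after EDTA stop; IC50 from 8-point concentration–response.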

Btk = Btk (Homo sapiens (Human), UniProt Q06187); assay: Inhibition of cellular Btk activity: Btk-dependent FcG receptor-induced IL-8 secretion in differentiated THP1 cells; format: cell-based; conditions: IgG-stimulated IL-8 secretion, 24 hours
Chain of Btk (Q06187 whole entry): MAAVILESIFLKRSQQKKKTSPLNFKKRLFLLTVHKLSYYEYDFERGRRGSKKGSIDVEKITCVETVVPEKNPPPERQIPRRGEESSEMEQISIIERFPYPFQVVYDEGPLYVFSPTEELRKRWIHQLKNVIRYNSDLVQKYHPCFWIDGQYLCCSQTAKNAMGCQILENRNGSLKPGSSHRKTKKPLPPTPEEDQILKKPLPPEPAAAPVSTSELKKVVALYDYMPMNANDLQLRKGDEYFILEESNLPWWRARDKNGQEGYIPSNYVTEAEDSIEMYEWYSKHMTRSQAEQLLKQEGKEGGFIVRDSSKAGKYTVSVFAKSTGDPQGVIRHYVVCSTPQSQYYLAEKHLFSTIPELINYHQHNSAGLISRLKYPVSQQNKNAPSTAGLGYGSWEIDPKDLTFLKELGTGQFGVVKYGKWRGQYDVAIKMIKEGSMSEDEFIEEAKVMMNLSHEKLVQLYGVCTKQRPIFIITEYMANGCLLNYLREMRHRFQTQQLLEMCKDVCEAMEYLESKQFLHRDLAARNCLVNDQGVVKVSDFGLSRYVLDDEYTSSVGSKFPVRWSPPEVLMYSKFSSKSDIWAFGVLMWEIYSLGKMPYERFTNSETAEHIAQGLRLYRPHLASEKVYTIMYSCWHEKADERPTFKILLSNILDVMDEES
Procedure: Alternatively, the present compounds might also be assessed for their capacity to inhibit Btk-dependent FcG receptor-induced IL-8 secretion in human cells. The human myeloid leukemia THP1 cell line (ATCC TIB202) was grown in RPMI 1640 medium supplemented with 10% FCS and 15 nM 1, 25-dihydroxy Vitamin D3 during 4 days before use to induced myeloid differentiation. A sufficient number of tissue-culture grade 384-well plates was coated with human IgG of unknown specificity by incubating overnight at 4° C. with 40 μl/well of a 50 μg/ml IgG solution in PBS. On the day of the experiment, plates were washed 5 times with 80 μl water on a Molecular Devices Aquamax DW4 plate washer. Solutions of the test compounds in 90% DMSO were added to each well on a Hamilton Microlab Star liquid handling station to 40 μl/well tissue culture medium and the total DMSO concentration was adjusted to 0.1%. Differentiated THP1 cells were then added in 40 μl/well to reach a final density of 5'000 cells/well in 80 μl culture medium. After 24 hours, IL-8 secretion was measured in the supernatant by the IL-8 HTRF assay following the protocol of the vendor (CisBio international). Inhibition data were calculated by comparison to control cultures without IgG stimulus enzyme (100% inhibition) and without inhibitors (0% inhibition). The concentration of inhibitor required for 50% inhibition (IC50) was calculated from the inhibition in response to inhibitor concentrations.

Chain of full-length human recombinant BTK (Q06187 whole entry): as above

CN(C)C(=O)N1CC=C(c2cc3c(-c4ccc(F)c(NC(=O)N5CC(OC(C)(C)C)C5)c4)ncnc3[nH]2)CC1 [Example 62, 4-(4-{3-[(3-tert-Butoxy-azetidine-1-carbonyl)-amino]-4-fluoro-phenyl}-7H-pyrrolo[2,3-d]pyrimidin-6-yl)-3,6-dihydro-2H-pyridine-1-carboxylic acid dimethylamide]
IC50 [1]: 2 nM | IC50 (Btk): 71 nM
